Each structure is given as a SMILES string. Converted amounts (≈) assume the structure as drawn.

The values below come from ChEMBL document CHEMBL5518214, “Discovery and Structure-Activity Relationships of Novel ssDAF-12 Receptor Modulators” (J Med Chem, 2024).

Data set [1] concerns the target T1, Nuclear hormone receptor isoform A (Strongyloides stercoralis, UniProt A0A0K0EQJ4).
T1 sequence (A0A0K0EQJ4 whole entry): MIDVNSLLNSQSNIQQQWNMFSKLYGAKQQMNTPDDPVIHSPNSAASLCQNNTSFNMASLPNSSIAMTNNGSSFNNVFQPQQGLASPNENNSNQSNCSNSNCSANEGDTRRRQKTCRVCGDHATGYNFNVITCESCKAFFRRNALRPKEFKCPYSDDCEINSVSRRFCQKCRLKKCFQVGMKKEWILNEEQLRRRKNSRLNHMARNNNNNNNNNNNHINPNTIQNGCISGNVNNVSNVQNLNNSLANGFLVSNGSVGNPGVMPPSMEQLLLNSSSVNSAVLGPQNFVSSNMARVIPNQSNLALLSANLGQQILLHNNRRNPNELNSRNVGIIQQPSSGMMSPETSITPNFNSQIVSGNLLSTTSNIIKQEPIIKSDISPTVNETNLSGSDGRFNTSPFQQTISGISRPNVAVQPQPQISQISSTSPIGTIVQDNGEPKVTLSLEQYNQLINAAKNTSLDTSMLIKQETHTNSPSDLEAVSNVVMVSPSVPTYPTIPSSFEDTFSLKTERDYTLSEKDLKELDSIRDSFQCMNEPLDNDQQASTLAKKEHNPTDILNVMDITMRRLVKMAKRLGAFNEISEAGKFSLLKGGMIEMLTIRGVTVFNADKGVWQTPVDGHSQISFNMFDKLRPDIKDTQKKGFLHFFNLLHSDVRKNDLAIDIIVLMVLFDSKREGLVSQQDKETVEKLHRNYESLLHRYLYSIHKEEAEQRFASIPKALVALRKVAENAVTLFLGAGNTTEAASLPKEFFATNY
The experiment in a line: Agonist activity at GST-tagged Strongyloides stercoralis DAF-12 LBD incubated for 0.5 hrs in presence of biotinylated SRC1 and SRC2 by Alphascreen assay.

The target in data set [2] is T2, Nuclear hormone receptor isoform A (Strongyloides stercoralis) (UniProt A0A0K0EQJ4).
T2 sequence (whole entry): T1 sequence (A0A0K0EQJ4 whole entry)
The experiment in a line: Agonist activity at GST-tagged Strongyloides stercoralis DAF-12 LBD incubated for 0.5 hrs in presence of biotinylated SRC1 and SRC2 by Alphascreen assay relative to control. Conditions: filed as agonist. (In general: In Alpha technology, singlet oxygen from a donor bead excites a nearby acceptor bead.)

Data set [3] deals with T1, Nuclear hormone receptor isoform A. Put plainly: Agonist activity at Strongyloides stercoralis DAF-12 LBD transfected in CHO cells. It is filed as cell-based.
Another data set relates to HepG2. The experiment in a line: Cytotoxicity against human HepG2 cells assessed as reduction in cell viability incubated for 4 hrs by celltiter glo assay. It is filed as toxicity, cell-based. The conditions noted are these: hepg2, 4 h.
Data set [4] in a line: Kinetic solubility of compound at pH 7.4 by HPLC/MS analysis. The class given is physicochemical. Conditions: buffer, read-out: Kinetic_solubility.
The nature of data set [5]: Metabolic stability in human liver microsome assessed as parent compound remaining measured for 30 mins by LC-MS analysis. The conditions noted are these: human liver microsomes, read-out: Stability. The class given is ADME. For orientation: Liver microsomes are vesicles of endoplasmic reticulum, rich in cytochrome P450 enzymes.
Data set [6] can be described thus: Metabolic stability in human liver microsome assessed as half life measured for 30 mins by LC-MS analysis. The class given is ADME. Conditions: human liver microsomes.
A short description of data set [7]: Drug metabolism in human liver microsome assessed as (2S,6R)-6-((5S,10S,13R,17R)-3-hydroxy-10,13-dimethyl-2,3,4,5,6,9,10,11,12,13,14,15,16,17-tetradecahydro-1H-cyclopenta[a]phenanthren-17-yl)-2-methylheptanoic acid formation by measuring retention time incubated for 90 mins in presence of NADPH by LC-MS/MS analysis. The conditions noted are these: microsomes, 1.5 h. It is filed as ADME.

A short description of data set [8]: Drug metabolism in human liver microsome incubated for 90 mins in presence of NADPH by LC-MS/MS analysis. It is filed as ADME. The conditions noted are these: microsomes, 1.5 h.
The target in data set [9] is T1, Nuclear hormone receptor isoform A. The experiment in a line: Antagonist activity at GST-tagged Strongyloides stercoralis DAF-12 LBD incubated for 0.5 hrs in presence of biotinylated SRC1 and SRC2 by Alphascreen assay.
Data set [10] shares this target. Put plainly: Partial agonist activity at GST-tagged Strongyloides stercoralis DAF-12 LBD incubated for 0.5 hrs in presence of biotinylated SRC1 and SRC2 by Alphascreen assay.
Data set [11] concerns the target T2, Nuclear hormone receptor isoform A (Strongyloides stercoralis). Put plainly: Partial agonist activity at GST-tagged Strongyloides stercoralis DAF-12 LBD incubated for 0.5 hrs in presence of biotinylated SRC1 and SRC2 by Alphascreen assay relative to control.

In the case of `C[C@H](CCC[C@H](C)C(=O)O)[C@H]1CC[C@H]2C3=CC[C@H]4CC(=O)CC[C@]4(C)C3CC[C@]12C` (stereo partly specified), the EC50 – broadly, the concentration at which the effect is half-maximal – was 0.08 µM in data set [1] and 0.09 µM in data set [3]. The Emax (in general, the maximal effect, on the per cent scale that the assay sets) in data set [2] came out at 100%. In addition, in the data set with HepG2, the Activity result is reported as “Non-Toxic”. Further, the solubility kinetic in data set [4] turned out to be 4 µM (≈ 1.66 µg/mL). The remaining at 0.5 h in data set [5] amounted to 50%. Besides, in [6], the half-life (usually the time needed for the level to fall by half in the phase considered) was 17 min. For the same compound, in [7], the Retention_time amounted to 8.51 min. In data set [8], the Drug metabolism entry was “Metabolite_Detected”.

With `C[C@H](CCc1nnn(C(C)(C)C)n1)[C@H]1CC[C@H]2C3=CC[C@H]4CC(=O)CC[C@]4(C)C3CC[C@]12C` (stereo partly specified), the IC50 (usually the concentration that inhibits the measured activity by half) in [9] is 7.8 µM. Further, the EC50 in data set [1] was more than 100 µM.

On to `C[C@H](CO)CCC[C@@H](C)[C@H]1CC[C@H]2C3=CC[C@H]4CC(=O)CC[C@]4(C)C3CC[C@]12C` (stereo partly specified), for which the concentration for a half-maximal effect (EC50) in data set [10] is 1.02 µM. Besides, in data set [11], the Emax was 36%.

As for `C[C@H](CCc1nn[nH]n1)[C@H]1CC[C@H]2C3=CC[C@H]4CC(=O)CC[C@]4(C)C3CC[C@]12C` (stereo partly specified), the IC50 in data set [9] worked out at 6.9 µM. For the same compound, the EC50 in data set [1] is more than 100 µM.

For `C[C@H](CCc1nnn(C)n1)[C@H]1CC[C@H]2C3=CC[C@H]4CC(=O)CC[C@]4(C)C3CC[C@]12C` (stereo partly specified), the IC50 in [9] is 10 µM. Also, the EC50 in data set [1] was more than 100 µM.

On to `C[C@H](CCC[C@H](C)C(=O)NS(=O)(=O)N(C)C)[C@H]1CC[C@H]2C3=CC[C@H]4CC(=O)CC[C@]4(C)C3CC[C@]12C` (stereo partly specified), for which the EC50 in data set [1] came to 0.65 µM. Moreover, the Emax in [2] was found to be 95%.

For the compound `C[C@@H](CCC[C@@H](C)[C@H]1CC[C@H]2C3=CC[C@H]4CC(=O)CC[C@]4(C)C3CC[C@]12C)COS(=O)(=O)O` (stereo partly specified), in [10], the EC50 stood at 7.2 µM. In addition, the Emax in [11] is 15%.

Turning to `CNC(=O)[C@@H](C)CCC[C@@H](C)[C@H]1CC[C@H]2C3=CC[C@H]4CC(=O)CC[C@]4(C)C3CC[C@]12C` (stereo partly specified), the EC50 in data set [10] turned out to be 1.02 µM. Also, the Emax in data set [11] stood at 11%.

In the case of `C[C@H](CCC[C@H](C)C(=O)NS(C)(=O)=O)[C@H]1CC[C@H]2C3=CC[C@H]4CC(=O)CC[C@]4(C)C3CC[C@]12C` (stereo partly specified), the EC50 is 0.41 µM in data set [1] and 0.47 µM in data set [3]. Moreover, in data set [2], the Emax is 85%. Also, the solubility kinetic in [4] is more than 250 µM. Moreover, the Retention_time in data set [7] is 7.28 min.

For the compound `C[C@H](CCCC1=C(O)CCC1=O)[C@H]1CC[C@H]2C3=CC[C@H]4CC(=O)CC[C@]4(C)C3CC[C@]12C` (stereo partly specified), the IC50 in data set [9] is 16.8 µM. Moreover, in data set [1], the EC50 was more than 100 µM.

For the compound `Cc1ccc(S(=O)(=O)NC(=O)[C@@H](C)CCC[C@@H](C)[C@H]2CC[C@H]3C4=CC[C@H]5CC(=O)CC[C@]5(C)C4CC[C@]23C)cc1` (stereo partly specified), in [1], the EC50 amounted to 4.7 µM. For the same compound, in [2], the Emax was found to be 40%.

As for `C[C@H](CCc1nnn(C(c2ccccc2)(c2ccccc2)c2ccccc2)n1)[C@H]1CC[C@H]2C3=CC[C@H]4CC(=O)CC[C@]4(C)C3CC[C@]12C` (stereo partly specified), the IC50 in data set [9] was 60 µM. In [1], the EC50 is more than 100 µM.

For `C[C@H](CCCc1nnn(C)n1)[C@H]1CC[C@H]2C3=CC[C@H]4CC(=O)CC[C@]4(C)C3CC[C@]12C` (stereo partly specified), the IC50 in [9] amounted to 17.9 µM. Also, in data set [1], the EC50 was more than 100 µM.
